From patent US7390806B2, “Antibiotics containing borinic acid complexes and methods of use” (Anacor Pharmaceuticals, Inc., priority 2002, dated 2008)
Values after ≈ are worked out from the molar mass of the structure shown.

Tests used:
M. tuberculosis P1SP2 = assay: Anti-mycobacterium in vitro activity, P1SP2; type: cell-based, Mycobacterium tuberculosis; conditions: Multi-drug resistant strain; for MIC: Mycobacterium tuberculosis, P1SP2
M. tuberculosis P2SP1 = assay: Anti-mycobacterium in vitro activity, P2SP1; type: cell-based, Mycobacterium tuberculosis; conditions: Multi-drug resistant strain; for MIC: Mycobacterium tuberculosis, P2SP1

| SMILES | MIC (M. tuberculosis P1SP2) [µg/mL] | MIC (M. tuberculosis P2SP1) [µg/mL] | M. tuberculosis MIC P1SP2 (M. tuberculosis P1SP2) [µg/mL] | M. tuberculosis MIC P2SP1 (M. tuberculosis P2SP1) [µg/mL] |
| --- | --- | --- | --- | --- |
| [H]/N=C(/N)N[C@H]1[C@H](O)[C@@H](O)[C@H](O[C@@H]2O[C@@H](C)[C@](O)(C=O)[C@H]2O[C@@H]2O[C@@H](CO)[C@H](O)[C@@H](O)[C@@H]2NC)[C@@H](N/C(N)=N\[H])[C@@H]1O [Streptomycin] | < 2 | < 2 | – | – |
| NNC(=O)c1ccncc1 [Isoniazid (INH), Isoniazid] | > 8 | > 8 | – | – |
| N[C@@H]1CON=C1O [cycloserine] | 8 (≈ 78.4 µM) | 8 (≈ 78.4 µM) | – | – |
| Oc1cccc2cccnc12 [Compound 55, 8-hydroxyquinoline] | – | – | 0.387 | 0.775 |
| CC1COc2c(N3CCN(C)CC3)c(F)cc3c(=O)c(C(=O)O)cn1c23 (stereo not shown) [Ofloxacin] | 16 (≈ 44.3 µM) | 32 (≈ 88.6 µM) | – | – |
| Oc1cccc2cccnc12 [Compound 65, 8-hydroxyquinoline] | – | – | 0.775 | 0.775 |
| CO[C@H]1/C=C/O[C@@]2(C)Oc3c(C)c(O)c4c(O)c(c(/C=N/N5CCN(C)CC5)c(O)c4c3C2=O)NC(=O)/C(C)=C\C=C\[C@H](C)[C@H](O)[C@@H](C)[C@@H](O)[C@@H](C)[C@H](OC(C)=O)[C@@H]1C [Rifampicin] | > 16 | 16 (≈ 19.4 µM) | – | – |
| CC[C@@H](CO)NCCN[C@@H](CC)CO [Ethambutol] | 8 (≈ 39.2 µM) | 8 (≈ 39.2 µM) | – | – |
| Oc1cccc2cccnc12 [Compound 72, 8-hydroxyquinoline] | – | – | 0.775 | 0.775 |
| Oc1cccc2cccnc12 [Compound 10, 8-hydroxyquinoline] | – | – | 0.387 | 0.387 |
| Oc1cccc2cccnc12 [Compound 50, 8-hydroxyquinoline] | – | – | 0.387 | 0.387 |
| NC[C@H]1O[C@H](O[C@H]2[C@H](O)[C@@H](O[C@H]3O[C@H](CO)[C@@H](O)[C@H](N)[C@H]3O)[C@H](N)C[C@@H]2N)[C@H](O)[C@@H](O)[C@@H]1O [Kanamycin] | < 2 | < 2 | – | – |
| Oc1cccc2cccnc12 [Compound 53, 8-hydroxyquinoline] | – | – | 0.387 | 0.775 |
| Oc1cccc2cccnc12 [Compound 75, 8-hydroxyquinoline] | – | – | 0.775 | 0.775 |
| CCc1cc(C(N)=S)ccn1 [Ethionamide] | 32 (≈ 192 µM) | > 64 | – | – |
| Oc1cccc2cccnc12 [Compound 51, 8-hydroxyquinoline] | – | – | 0.387 | 0.387 |
| Nc1ccc(C(=O)O)c(O)c1 [p-aminosalicylate] | – | – | 16 | 32 |
